Reference: patent publication US11542266B1, “Substituted piperidines as BTK inhibitors” (HAISCO PHARMACEUTICALS PTE. LTD., priority 2019, dated 2023)
Counter-ions that a name gives are not always drawn. Like-named read-outs stand apart in the source and are kept apart here.

Test system: Mino cells
Assay: Inhibition of cell proliferation, Mino cells (Cell Viability Assay, 72 h)
Format: cell-based, human
Details: for Mino Max inhi. %: inhibition rate at the highest concentration of the compound
Experimental: SU-DHL-4, Mino, and SU-DHL-6 cells, in the culture medium of RPMI1640+10% FBS, were cultured in an incubator at 37° C. under 5% CO2. Cells were plated in a 96-well plate. Specifically, SU-DHL-4 cells were at 20000/well, Mino and SU-DHL-6 cells were at 5000/well, with 90 μL/well. 10 μL of the compounds at different concentrations were added to each well. There were 3 replicate wells for each concentration, and the last column, added with DMSO, was used as a vehicle control group. The cultures were continued for 72 hours at 37° C. under 5% CO2. After 72 hours, 100 μL of detection reagent (Cell Viability Assay, Promega, G7573) was added to each well, and the cultures were uniformly mixed for 2 minutes, and incubated at room temperature for 10 minutes. The fluorescence signal value was measured with a microplate reader (PHERAstar FSX). The IC50 value of the compound on cell proliferation inhibition was calculated using Origin 9.2 software, and the inhibition rate at the highest concentration of the compound (Max inhi. %) was calculated according to formula (1). Max inhi. %=(1-T72 administration/T72 vehicle)×100 Formula (1).

SMILES | Mino Max inhi. % [%] | IC50 (Homo sapiens) [nM] | also measured
NC(=O)c1c(-c2ccc(Oc3ccccc3)cc2)nn2c1NCC[C@H]2C1CCN(C2CCN(c3ccc4c(c3)C(=O)N(C3CCC(=O)NC3=O)C4=O)CC2)CC1 (stereo partly drawn) [Compound 48, (7S)-7-(1′-(2-(2,6-dioxopiperidin-3-yl)-1,3-dioxo-isoindolin-5-yl)-[1,4′-bipiperidin]-4-yl)-2-(4-phenoxyphenyl)-4,5,6,7-tetrahydropyrazolo[1,5-a]pyrimidine-3-carboxamide] | 95.7 | – | –
Nc1ncnc2c1c(-c1ccc(Oc3ccccc3)cc1)nn2C1CCN(C2CN(C3CN(c4ccc5c(c4)C(=O)N(C4CCC(=O)NC4=O)C5=O)C3)C2)C1 (stereo not shown) [Compound 29, 5-(3-(3-(4-amino-3-(4-phenoxyphenyl)-1H-pyrazolo[3,4-d]pyrimidin-1-yl)pyrrolidin-1-yl)-[1,3′-biazetidin]-1′-yl)-2-(2,6-dioxopiperidin-3-yl)isoindoline-1,3-dione trifluoroacetate] | 71.2 | – | –
Nc1ncnc2c1c(-c1ccc(Oc3ccccc3)cc1)nn2C1CCN(C2C[C@@H]3CN(C4CN(c5ccc6c(c5)C(=O)N(C5CCC(=O)NC5=O)C6=O)C4)C[C@@H]3C2)CC1 (stereo partly drawn) [Compound 59, 5-(3-((3aR,6aS)-5-(4-(4-amino-3-(4-phenoxyphenyl)-1H-pyrazolo[3,4-d]pyrimidin-1-yl)piperidin-1-yl)hexahydrocyclopenta[c]pyrrol-2(1H)-yl)azetidin-1-yl)-2-(2,6-dioxopiperidin-3-yl)isoindoline-1,3-dione] | – | 501 | –
Nc1ncnc2c1c(-c1ccc(Oc3ccccc3)cc1)nn2C1CCN(C2CC3(CCN(C4CN(c5ccc6c(c5)C(=O)N(C5CCC(=O)NC5=O)C6=O)C4)CC3)C2)CC1 (stereo not shown) [Compound 50, 5-(3-(2-(4-(4-amino-3-(4-phenoxyphenyl)-1H-pyrazolo[3,4-d]pyrimidin-1-yl)piperidin-1-yl)-7-azaspiro[3.5]nonan-7-yl)azetidin-1-yl)-2-(2,6-dioxopiperidin-3-yl)isoindoline-1,3-dione] | – | 112 | –
Nc1ncnc2c1c(-c1ccc(Oc3ccccc3)cc1)nn2C1CCN(C2CCN(C3CN(c4ccc5c(c4)C(=O)N(C4CCC(=O)NC4=O)C5=O)C3)CC2F)CC1 (stereo not drawn) [Compound 49-1, cis-5-(3-(4-(4-amino-3-(4-phenoxyphenyl)-1H-pyrazolo[3,4-d]pyrimidin-1-yl)-3′-fluoro-[1,4′-bipiperidin]-1′-yl)azetidin-1-yl)-2-(2,6-dioxopiperidin-3-yl)isoindoline-1,3-dione-P1] | – | – | IC50: 113 nM
Nc1ncnc2c1c(-c1ccc(Oc3ccccc3)cc1)nn2C1CCN(C2CN(C3CCN(c4ccc5c(c4)C(=O)N(C4CCC(=O)NC4=O)C5=O)CC3)C2)CC1 (stereo not shown) [Compound 23, 5-[4-[3-[4-[4-amino-3-(4-phenoxyphenyl)pyrazolo[3,4-d]pyrimidin-1-yl]-1-piperidyl]azetidin-1-yl]-1-piperidyl]-2-(2,6-dioxo-3-piperidyl)isoindoline-1,3-dione] | – | 295 | –
NC(=O)c1c(-c2ccc(Oc3ccccc3)cc2)nn2c1NCC[C@H]2C1CCN(C2CCN(C3CN(c4ccc5c(c4)C(=O)N(C4CCC(=O)NC4=O)C5=O)C3)CC2)CC1 (stereo partly drawn) [Compound 30, (7S)-7-[1-[1-[1-[2-(2,6-dioxo-3-piperidyl)-1,3-dioxo-isoindolin-5-yl]azetidin-3-yl]-4-piperidyl]-4-piperidyl]-2-(4-phenoxyphenyl)-4,5,6,7-tetrahydropyrazolo[1,5-a]pyrimidine-3-carboxamide trifluoroacetate] | 82.5 | – | –
Nc1ncnc2c1c(-c1ccc(Oc3ccccc3)cc1)nn2C1CCN(C2CCC3(CC2)CN(C2CCC4(CC2)CN(c2ccc5c(c2)C(=O)N(C2CCC(=O)NC2=O)C5=O)C4)C3)CC1 (stereo not shown) [Compound 55, 5-(7-(4-(4-amino-3-(4-phenoxyphenyl)-1H-pyrazolo[3,4-d]pyrimidin-1-yl)piperidin-1-yl)-2,2′-diaza[2,7′-bispiro[3.5]nonan]-2′-yl)-2-(2,6-dioxopiperidin-3-yl)isoindoline-1,3-dione] | 99.9 | – | –
Nc1ncnc2c1c(-c1ccc(Oc3ccccc3)cc1)nn2C1CCN(C2CN(C3CCC4(CC3)CN(c3ccc5c(c3)C(=O)N(C3CCC(=O)NC3=O)C5=O)C4)C2)CC1 (stereo not shown) [Compound 54, 5-(7-(3-(4-(4-amino-3-(4-phenoxyphenyl)-1H-pyrazolo[3,4-d]pyrimidin-1-yl)piperidin-1-yl)azetidin-1-yl)-2-azaspiro[3.5]nonan-2-yl)-2-(2,6-dioxopiperidin-3-yl)isoindoline-1,3-dione] | – | 200 | –
NC(=O)c1c(-c2ccc(Oc3ccccc3)cc2)nn2c1NCC[C@H]2C1CCN(C2CN(C3CN(c4ccc5c(c4)C(=O)N(C4CCC(=O)NC4=O)C5=O)C3)C2)CC1 (stereo partly drawn) [Compound 31, (7S)-7-[1-[1-[1-[2-(2,6-dioxo-3-piperidyl)-1,3-dioxo-isoindolin-5-yl]azetidin-3-yl]azetidin-3-yl]-4-piperidyl]-2-(4-phenoxyphenyl)-4,5,6,7-tetrahydropyrazolo[1,5-a]pyrimidine-3-carboxamide trifluoroacetate] | 78.3 | – | –
Nc1ncnc2c1c(-c1ccc(Oc3ccccc3)cc1)nn2C1CCN(C2CC3CCC(C2)N3c2ccc3c(c2)C(=O)N(C2CCC(=O)NC2=O)C3=O)CC1 (stereo not shown) [Compound 58, 5-(3-(4-(4-amino-3-(4-phenoxyphenyl)-1H-pyrazolo[3,4-d]pyrimidin-1-yl)piperidin-1-yl)-8-azabicyclo[3.2.1]octan-8-yl)-2-(2,6-dioxopiperidin-3-yl)isoindoline-1,3-dione] | 95.3 | – | –
Nc1ncnc2c1c(-c1ccc(Oc3ccccc3)cc1)nn2C1CCN(C2CN(C3CN(C4CN(c5ccc6c(c5)C(=O)N(C5CCC(=O)NC5=O)C6=O)C4)C3)C2)CC1 (stereo not shown) [Compound 60, 5-(3-(4-(4-amino-3-(4-phenoxyphenyl)-1H-pyrazolo[3,4-d]pyrimidin-1-yl)piperidin-1-yl)-[1,3′:1′,3″-terazetidin]-1H-yl)-2-(2,6-dioxopiperidin-3-yl)isoindoline-1,3-dione] | – | 165 | –
Nc1ncnc2c1c(-c1ccc(Oc3ccccc3)cc1)nn2C1CCN(C2CC3CCC(C2)N3C2CN(c3ccc4c(c3)C(=O)N(C3CCC(=O)NC3=O)C4=O)C2)CC1 (stereo not shown) [Compound 57, 5-(3-(3-(4-(4-amino-3-(4-phenoxyphenyl)-1H-pyrazolo[3,4-d]pyrimidin-1-yl)piperidin-1-yl)-8-azabicyclo[3.2.1]octan-8-yl)azetidin-1-yl)-2-(2,6-dioxopiperidin-3-yl)isoindoline-1,3-dione] | 99.2 | – | –
Nc1ncnc2c1c(-c1ccc(Oc3ccccc3)cc1)nn2C1CCN(C2CN(C3CC4(CCN(c5ccc6c(c5)C(=O)N(C5CCC(=O)NC5=O)C6=O)CC4)C3)C2)CC1 (stereo not shown) [Compound 62, 5-(2-(3-(4-(4-amino-3-(4-phenoxyphenyl)-1H-pyrazolo[3,4-d]pyrimidin-1-yl)piperidin-1-yl)azetidin-1-yl)-7-azaspiro[3.5]nonan-7-yl)-2-(2,6-dioxopiperidin-3-yl)isoindoline-1,3-dione] | – | 38 | –
Nc1ncnc2c1c(-c1ccc(Oc3ccccc3)cc1)nn2C1CCN(C2CN(C3CN(c4cccc5c4C(=O)N(C4CCC(=O)NC4=O)C5=O)C3)C2)CC1 (stereo not shown) [Compound 27, 4-[3-[3-[4-[4-amino-3-(4-phenoxyphenyl)pyrazolo[3,4-d]pyrimidin-1-yl]-1-piperidyl]azetidin-1-yl]azetidin-1-yl]-2-(2,6-dioxo-3-piperidyl)isoindoline-1,3-dione] | – | 503 | –
Nc1ncnc2c1c(-c1ccc(Oc3ccccc3)cc1)nn2C1CCN(C2CN(C3CCN(C4CCN(c5ccc6c(c5)C(=O)N(C5CCC(=O)NC5=O)C6=O)CC4)CC3)C2)CC1 (stereo not shown) [Compound 15, 5-[4-[4-[3-[4-[4-amino-3-(4-phenoxyphenyl)pyrazolo[3,4-d]pyrimidin-1-yl]-1-piperidyl]azetidin-1-yl]-1-piperidyl]-1-piperidyl]-2-(2,6-dioxo-3-piperidyl)isoindoline-1,3-dione] | 99.8 | – | –
Nc1ncnc2c1c(-c1ccc(Oc3ccccc3)cc1)nn2C1CCN(C2CC3(CCN(C4CC5(CCN(c6ccc7c(c6)C(=O)N(C6CCC(=O)NC6=O)C7=O)CC5)C4)CC3)C2)CC1 (stereo not shown) [Compound 51, 5-(2′-(4-(4-amino-3-(4-phenoxyphenyl)-1H-pyrazolo[3,4-d]pyrimidin-1-yl)piperidin-1-yl)-7,7′-diaza[2,7′-bispiro[3.5]nonan]-7-yl)-2-(2,6-dioxopiperidin-3-yl)isoindoline-1,3-dione] | 99.7 | – | –
Nc1ncnc2c1c(-c1ccc(Oc3ccccc3)cc1)nn2C1CCN(C2CN(C3C[C@@H]4CN(c5ccc6c(c5)C(=O)N(C5CCC(=O)NC5=O)C6=O)C[C@@H]4C3)C2)CC1 (stereo partly drawn) [Compound 61, 5-((3aR,6aS)-5-(3-(4-(4-amino-3-(4-phenoxyphenyl)-1H-pyrazolo[3,4-d]pyrimidin-1-yl)piperidin-1-yl)azetidin-1-yl)hexahydrocyclopenta[c]pyrrol-2(1H)-yl)-2-(2,6-dioxopiperidin-3-yl)isoindoline-1,3-dione] | – | 100 | –
Nc1ncnc2c1c(-c1ccc(Oc3ccccc3)cc1)nn2C1CCN(C2CN(C3CN(c4ccc5c(c4)CN(C4CCC(=O)NC4=O)C5=O)C3)C2)CC1 (stereo not shown) [Compound 26, 3-[5-[3-[3-[4-[4-amino-3-(4-phenoxyphenyl)pyrazolo[3,4-d]pyrimidin-1-yl]-1-piperidyl]azetidin-1-yl]azetidin-1-yl]-1-oxo-isoindolin-2-yl]piperidine-2,6-dione] | 74.3 | – | –
